Test results reported in US8802664B2 (Bioproject, priority 2010, dated 2014).

Target: T1, human H4 receptor (Homo sapiens, UniProt Q9H3N8)
T1 construct: expressed in transfected cells
Assay: [3H]Histamine binding on membranes of CHO cells stably expressing human H4 receptor
Conditions: not given
Summary of the method: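 First, thawed CHO membranes carrying human H4 were diluted to 20 μg protein per well in pH 7.4 Tris/EDTA buffer. Next, incubation was ended by rapid filtration through PEI-treated GF/B filters followed by cold rinses. Finally, retained radioactivity was counted; 10 μM JNJ 7777120 marked nonspecific binding.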

| Ki or IC50 activity class | Molecule |
| --- | --- |
| < 30 nM | CN1CCC(OC(c2cccc(Br)c2)c2nc3cc(F)ccc3[nH]2)CC1 (single isomer, unassigned) [Example 568, 2-[(3-bromophenyl)(1-methylpiperidin-4-yloxy)methyl]-5-fluoro-1H-benzimidazole] |
| < 1000 nM | Fc1ccc(OC(F)(F)F)cc1C(OCC1CNC1)c1nc2ccccc2[nH]1 (stereo not shown) [Example 515] |
| < 1000 nM | Cc1cc(C(NC2CCN(C)CC2)c2nc3ccccc3s2)ccc1F (stereo not shown) [Example 35, [benzothiazol-2-yl(4-fluoro-3-methyl-phenyl)methyl](1-methylpiperidin-4-yl)amine] |
| < 1000 nM | CN1CCC(OC(c2cccc(OCCN3CCCCC3)c2)c2nc3ccccc3[nH]2)CC1 (stereo not shown) [Example 356, 2-{(1-methylpiperidin-4-yloxy)[3-(2-piperidin-1-yl-ethoxy)phenyl]methyl}-1H-benzimidazole] |
| < 30 nM | CN1CCC(OC(c2cccc(CCCCNC(=N)N)c2)c2nc3ccccc3s2)CC1 (stereo not shown) [Example 374, N-(4-{3-[benzothiazol-2-yl(1-methylpiperidin-4-yloxy)methyl]phenyl}butyl)guanidine] |
| < 30 nM | CCSc1ccc(F)c(C(OC2CCN(C)CC2)c2nc3ccccc3[nH]2)c1 (stereo not shown) [Example 514] |
| < 1000 nM | CN1CCC(OC(c2cccc(N3CCC(O)CC3)c2)c2nc3ccccc3s2)CC1 (stereo not shown) [Example 411, 1-{3-[benzothiazol-2-yl(1-methylpiperidin-4-yloxy)methyl]phenyl}piperidin-4-ol] |
| < 300 nM | COc1ccc(-c2cccc(C(OC3CCN(C)CC3)c3nc4ccccc4s3)c2)cc1 (stereo not shown) [Example 100, 2-[(4′-methoxybiphenyl-3-yl)(1-methylpiperidin-4-yloxy)methyl]benzothiazole] |
| < 300 nM | CN1CCC(OC(c2cccc(C#CCCO)c2)c2nc3ccccc3s2)CC1 (stereo not shown) [Example 236, 4-{3-[benzothiazol-2-yl(1-methylpiperidin-4-yloxy)methyl]phenyl}but-3-yn-1-ol] |
| < 300 nM | CN1CCC(OC(c2cccc(Oc3cccnc3)c2)c2nc3ccccc3s2)CC1 (stereo not shown) [Example 448, 2-{(1-methylpiperidin-4-yloxy)[3-(pyridin-3-yloxy)phenyl]methyl}benzothiazole] |
| < 300 nM | CN1CCC(OC(c2cccc(CCCCCN)c2)c2nc3ccccc3[nH]2)CC1 (stereo not shown) [Example 312, 5-{3-[(1H-benzimidazol-2-yl)(1-methylpiperidin-4-yloxy)methyl]phenyl}pentylamine] |
| < 30 nM | CN1CCC(OC(c2nc3ccccc3[nH]2)c2cc(C#CCCCCN=C(c3ccccc3)c3ccccc3O)ccc2F)CC1 (stereo not shown) [Example 562, 2-[(6-{3-[(1H-benzimidazol-2-yl)(1-methylpiperidin-4-yloxy)methyl]-4-fluorophenyl]hex-5-ynylimino)phenylmethyl}phenol] |
| < 30 nM | CN1CCC(OC(c2cccc(C#CCCCN)c2)c2nc3cc(F)ccc3[nH]2)CC1 (stereo not shown) [Example 438, 5-{3-[(5-fluoro-1H-benzimidazol-2-yl)(1-methylpiperidin-4-yloxy)methyl]phenyl}pent-4-ynylamine] |
| < 300 nM | C=CCCCOc1cccc(C(OC2CCN(C)CC2)c2nc3ccccc3s2)c1 (stereo not shown) [Example 168, 2-[(1-methylpiperidin-4-yloxy)(3-pent-4-enyloxy-phenyl)methyl]benzothiazole] |
| < 300 nM | CN1CCC(OC(c2cccc(C#CCCN)c2)c2nc3ccccc3[nH]2)CC1 (stereo not shown) [Example 286, 4-{3-[(1H-benzimidazol-2-yl)(1-methylpiperidin-4-yloxy)methyl]phenyl}but-3-ynylamine] |
| < 300 nM | CN1CCC(OC(c2cccc(C=CCCCO)c2)c2nc3ccccc3[nH]2)CC1 (stereo not shown) [Example 389, 5-{3-[(1H-benzimidazol-2-yl)(1-methylpiperidin-4-yloxy)methyl]phenyl}pent-4-en-1-ol] |
| < 300 nM | CN1CCC(OC(c2cccc(C=CCCCO)c2)c2nc3ccccc3s2)CC1 (stereo not shown) [Example 384, 5-{3-[benzothiazol-2-yl(1-methylpiperidin-4-yloxy)methyl]phenyl}pent-4-en-1-ol] |
| < 1000 nM | CN1CCC(OC(c2cccc(OCCCN3CCN(C(=O)OC(C)(C)C)CC3)c2)c2nc3ccccc3s2)CC1 (stereo not shown) [Example 351, 4-(3-{3-[benzothiazol-2-yl(1-methylpiperidin-4-yloxy)methyl]phenoxy}propyl)piperazine-1-carboxylic acid tert-butyl ester] |
| < 30 nM | CN1CCC(OC(c2cccc(OCCCF)c2)c2nc3ccccc3s2)CC1 (stereo not shown) [Example 176, 2-[[3-(3-fluoropropoxy)phenyl](1-methylpiperidin-4-yloxy)methyl]benzothiazole] |
| < 1000 nM | CN1CCC(OC(c2cccc(C#CC3CCNCC3)c2)c2nc3ccccc3[nH]2)CC1 (stereo not shown) [Example 376, 2-[(1-methylpiperidin-4-yloxy)(3-piperidin-4-ylethynyl-phenyl)methyl]-1H-benzimidazole] |
| < 1000 nM | CC(=O)COCc1cccc(C(OC2CCN(C)CC2)c2nc3ccccc3s2)c1 (stereo not shown) [Example 270, 1-{3-[benzothiazol-2-yl(1-methylpiperidin-4-yloxy)methyl]benzyloxy}propan-2-one] |

| Ki or IC50 activity class | Molecule |
| --- | --- |
| < 30 nM | COc1cccc(COc2cccc(C(NC3CCN(C)CC3)c3nc4ccccc4[nH]3)c2)c1 (stereo not shown) [Example 125, {(1H-benzimidazol-2-yl)[3-(3-methoxybenzyloxy)phenyl]methyl}(1-methylpiperidin-4-yl)amine] |
| < 30 nM | CN1CCC(OC(c2cccc(SCCN)c2)c2nc3ccccc3s2)CC1 (stereo not shown) [Example 269, 2-{3-[benzothiazol-2-yl(1-methylpiperidin-4-yloxy)methyl]phenylsulfanyl}ethylamine] |
| < 300 nM | CN1CCC(OC(c2cccc(OC3CCNC3)c2)c2nc3ccccc3[nH]2)CC1 (stereo not shown) [Example 461] |
| < 300 nM | CN1CCC(OC(c2cccc(N3CC(O)C3)c2)c2nc3ccccc3s2)CC1 (stereo not shown) [Example 403, 1-{3-[benzothiazol-2-yl(1-methylpiperidin-4-yloxy)methyl]phenyl}azetidin-3-ol] |
| < 300 nM | CN1CCC(OC(c2ccsc2)c2nc3ccccc3[nH]2)CC1 (stereo not shown) [Example 539] |
| < 30 nM | CCSc1cccc(C(OC2CCN(C)CC2)c2nc3ccccc3[nH]2)c1 (stereo not shown) [Example 153, 2-[(3-ethylsulfanylphenyl)(1-methylpiperidin-4-yloxy)methyl]-1H-benzimidazole] |
| < 300 nM | CN1CCC(OC(c2cccc(-c3cccc([N+](=O)[O-])c3)c2)c2nc3ccccc3s2)CC1 (stereo not shown) [Example 97, 2-[(1-methylpiperidin-4-yloxy)(3′-nitrobiphenyl-3-yl)methyl]benzothiazole] |
| < 300 nM | Cc1ccc(C(OC2CCN(C)CC2)c2nc3ccccc3o2)c(F)c1 (stereo not shown) [Example 545] |
| < 1000 nM | CN1CCC(OC(c2ccc(Cl)cc2)c2nc3ccccc3s2)CC1 (stereo not shown) [Example 4, 2-[(4-chlorophenyl)(1-methylpiperidin-4-yloxy)methyl]benzothiazole] |
| < 1000 nM | c1ccc2[nH]c(C(OC3CCNCC3)c3ccsc3)nc2c1 (stereo not shown) [Example 538] |
| < 300 nM | CN1CCC(OC(c2cccc(Br)c2)c2nc3ccccc3[nH]2)CC1 (stereo not shown) [Example 78, 2-[(3-bromophenyl)(1-methylpiperidin-4-yloxy)methyl]-1H-benzimidazole] |
| < 300 nM | CN1CCC(OC(c2cccc(C#CCCCO)c2)c2nc3ccccc3s2)CC1 (stereo not shown) [Example 237, 5-{3-[benzothiazol-2-yl(1-methylpiperidin-4-yloxy)methyl]phenyl}pent-4-yn-1-ol] |
| < 300 nM | C=CCCCOc1cccc(C(NC2CCN(C)CC2)c2nc3ccccc3[nH]2)c1 (stereo not shown) [Example 135, [(1H-benzimidazol-2-yl)(3-pent-4-enyloxyphenyl)methyl](1-methylpiperidin-4-yl)amine] |
| < 30 nM | CN1CCC(OC(c2cccc(SCCCCN)c2)c2nc3cc(F)ccc3[nH]2)CC1 (stereo not shown) [Example 440, 4-{3-[(5-fluoro-1H-benzimidazol-2-yl)(1-methylpiperidin-4-yloxy)methyl]phenylsulfanyl}butylamine] |
| < 300 nM | COC(=O)c1cccc(C(OC2CCN(C)CC2)c2nc3ccccc3s2)c1 (stereo not shown) [Example 199, 3-[benzothiazol-2-yl(1-methylpiperidin-4-yloxy)methyl]benzoic acid methyl ester] |
| < 30 nM | CN1CCC(OC(c2cccc(OCc3ccccn3)c2)c2nc3ccccc3s2)CC1 (stereo not shown) [Example 283, 2-{(1-methylpiperidin-4-yloxy)[3-(pyridin-2-ylmethoxy)phenyl]methyl}benzothiazole] |
| < 30 nM | CN1CCC(OC(c2cccc(OCC=CCN)c2)c2nc3ccccc3s2)CC1 (stereo not shown) [Example 431, 4-{3-[benzothiazol-2-yl(1-methylpiperidin-4-yloxy)methyl]phenoxy}but-2-enylamine] |
| < 30 nM | CN1CCC(OC(c2cccc(SCCO)c2)c2nc3ccccc3s2)CC1 (single isomer, unassigned) [Example 229, 2-{3-[benzothiazol-2-yl(1-methylpiperidin-4-yloxy)methyl]phenylsulfanyl}ethanol] |
| < 1000 nM | CN1CCC(OC(c2cccc(OC3CCC(N)CC3)c2)c2nc3ccccc3s2)CC1 (stereo not shown) [Example 477] |
| < 30 nM | CN1CCC(OC(c2cccc(SCC(=O)NCCN)c2)c2nc3ccccc3[nH]2)CC1 (stereo not shown) [Example 436, N-(2-aminoethyl)-2-{3-[(1H-benzimidazol-2-yl)(1-methylpiperidin-4-yloxy)methyl]phenylsulfanyl}acetamide] |

Same assay, conditions: human H4 receptor; evaluated in the GTPγ[35S] assay or in the [3H]histamine binding assay (not stated which per compound); Ki or IC50 class

| Ki or IC50 activity class | Molecule |
| --- | --- |
| < 30 nM | 4-[benzothiazol-2-yl(3-bromo-phenyl)methoxy]-1,1-dimethylpiperidinium [Example 188] |
| < 30 nM | CN1CCC(OC(c2cccc(CCCNC(=N)N)c2)c2nc3ccccc3[nH]2)CC1 (stereo not shown) [Example 321, N-(3-{3-[(1H-benzimidazol-2-yl)(1-methylpiperidin-4-yloxy)methyl]phenyl}propyl)guanidine] |
